Source: patent US20080051429A1, “USE OF 4-AMINO-PIPERIDINES FOR TREATING SLEEP DISORDERS” (priority 2006, published 2008)
pIC50: −log10 of the molar value. Counter-ions that a name gives are not always drawn. Like-named read-outs stand apart in the source and are kept apart here. Each block holds one molecule with its values, some of them ahead of it.

Molecular target: T1, 5-HT2A receptor (Homo sapiens, UniProt P28223)
T1 construct: expressed in transfected cells; host or cells: NIH3T3 cells, pSI expression vector
Assay: R-SAT functional receptor assay
Type: cell-based
Conditions: for Emax: 120 h
Method: The functional receptor assay, Receptor Selection and Amplification Technology (R-SAT), was used (with minor modifications from that previously described U.S. Pat. No. 5,707,798) to screen compounds for efficacy at the 5-HT2A receptor. Briefly, NIH3T3 cells were grown in 96 well tissue culture plates to 70-80% confluence. Cells were transfected for 12-16 hours with plasmid DNAs using superfect (Qiagen Inc.) as per manufacture's protocols. R-SAT's were generally performed with 50 ng/well of receptor and 20 ng/well of Beta-galactosidase plasmid DNA. All receptor and G-protein constructs used were in the pSI mammalian expression vector (Promega Inc) as described in U.S. Pat. No. 5,707,798. The 5HT2A receptor gene was amplified by nested PCR from brain cDNA using the oligodeoxynucleotides based on the published sequence (see Saltzman et. al. Biochem. Biophys. Res. Comm. 181:1469-78 (1991)). Large-scale transfections, cells were transfected for 12-16 hours, then trypsinized and frozen in DMSO. Frozen cells were later thawed, plated at 10,000-40,000 cells per well of a 96 well plate that contained drug. With both methods, cells were then grown in a humidified atmosphere with 5% ambient CO2 for five days. Media was then removed from the plates and marker gene activity was measured by the addition of the beta-galactosidase substrate ONPG (in PBS with 5% NP-40). The resulting colorimetric reaction was measured in a spectrophotometric plate reader (Titertek Inc.)at […]. All data were analyzed using the computer program XLFit (IDBSm). Efficacy is the percent maximal repression compared to repression by a control compound (ritanserin in the case of 5HT2A). pIC50 is the negative of the log(IC50), where IC50 is the calculated concentration in Molar that produces 50% maximal repression.
Briefly, the 5-HT2A receptor, and the alpha subunit of the guanine nucleotide binding protein Gq were transiently transfected into NIH3T3 cells and assayed using the functional receptor assay, Receptor Selection and Amplification Technology (R-SAT) essentially as disclosed in U.S. Pat. No. 5,707,798. Each compound was screened at seven serially diluted concentrations in triplicate. Data were analyzed using least squares fit analysis with GraphPad Prism (San Diego, Calif.), and are reported normalized to percent response.
R-SAT assays (as described in Example 42) were carried out with cells transfected with receptors (listed below) to determine the receptor selectivity profile for compound 26HCH16D. 5HT2A inverse agonist data (IC50 nM; % efficacy) were derived from detailed dose response curves (7 points in triplicate).
(§1) The functional receptor assay, Receptor Selection and Amplification Technology (R-SAT), was used (with minor modifications from that previously described U.S. Pat. No. 5,707,798) to screen compounds for efficacy at the 5-HT2A receptor. The RSAT assay was conducted as described herein.
as §1, with “5,707,798, which is incorporated herein by reference in its entirety)” for “5,707,798)”

[1] = read-out: Percent Efficacy, compared to ritanserin
[2] = Table 3, read-out: pIC50 (converted)
[3] = compared to ritanserin, read-out: 5HT2A % inhibition
[4] = Table 6, read-out: 5HT2A pIC50 (converted)
[5] = Table 5, read-out: 5HT2A pIC50 (converted)

T1 sequence (P28223 whole entry): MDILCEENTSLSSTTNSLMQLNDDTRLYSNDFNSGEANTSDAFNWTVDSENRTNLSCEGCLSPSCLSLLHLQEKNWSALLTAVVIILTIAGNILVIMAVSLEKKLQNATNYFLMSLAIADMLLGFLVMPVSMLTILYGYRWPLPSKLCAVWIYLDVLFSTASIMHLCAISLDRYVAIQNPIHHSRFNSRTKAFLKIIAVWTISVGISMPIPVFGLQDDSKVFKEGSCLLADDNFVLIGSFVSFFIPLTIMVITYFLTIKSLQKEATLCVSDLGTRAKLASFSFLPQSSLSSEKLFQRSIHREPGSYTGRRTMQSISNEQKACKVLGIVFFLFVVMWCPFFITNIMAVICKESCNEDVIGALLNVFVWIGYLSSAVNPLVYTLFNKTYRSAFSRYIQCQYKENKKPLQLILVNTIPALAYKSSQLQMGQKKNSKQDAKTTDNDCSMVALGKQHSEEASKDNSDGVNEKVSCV

SMILES: CC[C@H]1COC(=O)N1CCCN1CCC(N(Cc2ccc(F)cc2)C(=O)Cc2ccc(OCC(C)C)cc2)CC1 [Example 118AF16-80, N-(4-Fluorobenzyl)-2-(4-isobutoxyphenyl)-N-{1-[3-((S)-4-ethyl-2-oxo-oxazolidin-3-yl)-propyl]piperidin-4-yl}acetamide, oxalate]
pIC50 (5HT2A pIC50, Table 5): 9.10
Emax (read-out: 5HT2A % INH): 103%

SMILES: COc1ccc(CN2C(=O)OC3(CCN(C)CC3)C2Cc2ccc(C)cc2)cc1 (stereo not shown) [Example 69NLS35, 3-(4-Methoxybenzyl)-8-methyl-4-(4-methylbenzyl)-1-oxa-3,8-diaza-spiro[4.5]decan-2-one, hydrochloride]
Emax [3]: 103%
IC50 [4]: 0.251 nM

SMILES: CCCOc1ccc(CC(=O)N(CCc2ccc(F)cc2)C2CCN(CCCN3C(=O)OC[C@@H]3C(C)C)CC2)cc1 [Example 117NLS03-B, N-[2-(4-Fluorophenyl)ethyl]-N-{1-[3-(4-(S)-isopropyl-2-oxo-oxazolidin-3-yl)propyl]piperidin-4-yl}-2-(4-propoxyphenyl)acetamide, oxalate]
pIC50 (5HT2A pIC50, Table 5): 8.40
Emax (read-out: 5HT2A % INH): 85%

SMILES: CCc1ccc(CN2CCC(N(Cc3ccc(C)cc3)C(=O)NCc3ccccc3)CC2)s1 [Example 26HCH66-05, N-(1-((5-Ethylthien-2-yl)methyl)piperidin-4-yl)-N-((4-methylphenyl)methyl)-N′-phenylmethylcarbamide]
Emax (read-out: Percent Efficacy): 126%
pIC50 (pIC50 (average), inverse agonist): 7.55
pIC50 (pIC50, Table 3): 8.10
Efficacy (average) (percent maximal repression compared to ritanserin): 109

SMILES: CC(C)COc1ccc(CN2C(=O)OC3(CCN(CCC4OCCO4)CC3)C2Cc2ccc(F)cc2)cc1 (stereo not shown) [Example 69NLS79-II, 8-(2-[1,3]Dioxolan-2-yl-ethyl)-4-(4-fluorobenzyl)-3-(4-isobutoxybenzyl)-1-oxa-3,8-diaza-spiro[4.5]decan-2-one, hydrochloride]
Emax [3]: 101%
IC50 [4]: 7.94 nM

SMILES: O=C(Cc1ccc2occc2c1)N(Cc1ccc(F)cc1)C1CCN(CCC2OCCCO2)CC1 [Example 128NLS22-A, 2-Benzofuran-5-yl-N-{1-[2-(1,3-dioxan-2-yl)ethyl]piperidin-4-yl}-N-(4-fluorobenzyl)acetamide, tartrate]
Emax (read-out: 5HT2A % INH): 98%
IC50 [5]: 3.16 nM

SMILES: COc1ccc(CC(=O)N(Cc2ccc(C)cc2)C2CCN(Cc3csc(C)n3)CC2)cc1 [Example 63ELH1A, 2-(4-Methoxyphenyl)-N-(4-methylbenzyl)-N-[1-(2-methylthiazol-4-ylmethyl)piperidin-4-yl]acetamide]
Emax (read-out: Percent Efficacy): 104%
pIC50 (pIC50, Table 3): 8.30

SMILES: Cc1ccc(CN(C(=O)Cc2ccc(C(C)C)cc2)C2CCN(C)CC2)cc1 [Example 57MBT70-3D, N-((4-methylphenyl)methyl)-N-(1-methylpiperidin-4-yl)-2-(4-(2-propyl)phenylacetamide hydrochloride]
Emax [1]: 87%
pIC50 (pIC50, Table 3): 8.90

SMILES: CC(C)COc1ccc(CNC(=O)N(Cc2ccc(F)cc2)C2CCN(CCC3OCCCO3)CC2)cc1 [Example 117NLS25, N-{1-[2-(1,3-Dioxan-2-yl)ethyl]piperidin-4-yl}-N-(4-fluorobenzyl)-N′-(4-isobutoxybenzyl)carbamide, tartrate]
Emax (read-out: 5HT2A % INH): 94%
IC50 [5]: 1.26 nM

SMILES: CN1CCC2(CC1)OC(=O)N(Cc1ccc(OCC3CC3)cc1)C2Cc1ccc(F)cc1 (stereo not shown) [Example 69NLS52, 3-(4-Cyclopropylmethoxybenzyl)-4-(4-fluorobenzyl)-8-methyl-1-oxa-3,8-diaza-spiro[4.5]decan-2-one, hydrochloride]
Emax [3]: 87%
IC50 [4]: 0.251 nM

SMILES: CC(C)COc1ccc(CN2C(=O)OC3(CCN(C)CC3)C2Cc2ccc(F)cc2)cc1 (single isomer, unassigned) [Example 78NLS62, 4-(4-fluorobenzyl)-3-(4-isobutoxybenzyl)-8-methyl-1-oxa-3,8-diaza-spiro[4.5]decan-2-one, hydrochloride]
Emax [3]: 89%

Next, values leading:

Emax [1]: 101%
IC50 [2]: 0.158 nM
SMILES: Cc1ccc(CN(C(=O)Cc2ccc(OC(C)C)cc2)C2CCN(C)CC2)cc1 [Example 58AKU-6, 2-(4-i-Propoxyphenyl)-N-(4-methylbenzyl)-N-(1-methylpiperidin-4-yl)acetamide]

Emax [1]: 75%
IC50 [2]: 20 nM
SMILES: COc1ccc(CC(=O)N(Cc2ccc(C)cc2)C2CCN(C)CC2)cc1O [Example 57MBT12B, N-((4-methylphenyl)methyl)-N-(1-methylpiperidin-4-yl)-2-(3-hydroxy-4-methoxyphenyl)acetamide]

Emax [1]: 120%
IC50 [2]: 10 nM
SMILES: COc1ccc(CC(=O)N(Cc2ccc(C)cc2)C2CCN(C3CCC3)CC2)cc1 [Example 47AKU-20, 2-(4-Methoxyphenyl)-N-(4-methylbenzyl)-N-(1-cyclobutylpiperidin-4-yl)acetamide]

Efficacy (average): 91
IC50 (inverse agonist, read-out: pIC50 (average) (converted)): 61.7 nM
SMILES: COc1ccc(CC(=O)N(Cc2cccc(Br)c2)C2CCNCC2)cc1 [Example 26HCH80-10, N-((3-Bromophenyl)methyl)-N-(piperidin-4-yl)-4-methoxyphenylacetamide]

Emax [1]: 117%
IC50 [2]: 12.6 nM
SMILES: Cc1ccc(CN(C(=O)NCc2ccccc2)C2CCN(C)CC2)cc1 [Example 47AKU-22, N-(4-Methylbenzyl)-N-(1-methylpiperidin-4-yl)-N′-benzyl-carbamide]

Percent Efficacy (compared to ritanserin): 118%
SMILES: CCN1CCC(N(Cc2ccc(Cl)cc2)C(=O)Cc2ccc(OC)cc2)CC1 [Example 42ELH85, 2-(4-Methoxyphenyl)-N-(4-chlorbenzyl)-N-(1-ethylpiperidin-4-yl)acetamide]

Emax [1]: 110%
IC50 [2]: 3.16 nM
SMILES: COc1ccc(CC(=O)N(Cc2ccc(C)cc2)C2CCN(C(C)C)CC2)cc1 [Example 42ELH79, 2-(4-Methoxyphenyl)-N-(4-methylbenzyl)-N-(1-isopropylpiperidin-4-yl)acetamide]

Percent Efficacy: 108%
SMILES: COc1ccc(CC(=O)N(Cc2ccc(C)cc2)C2CCN(CC3CCCCC3)CC2)cc1 [Example 42ELH45, 2-(4-Methoxyphenyl)-N-(4-methylbenzyl)-N-(1-cyclohexylmethylpiperidin-4-yl)acetamide]

Emax [1]: 124%
IC50 [2]: 12.6 nM
SMILES: COc1ccc(CC(=O)N(Cc2ccc(C)cc2)C2CCNCC2)cc1 [Example 26HCH71B, N-((4-Methylphenyl)methyl)-N-(piperidin-4-yl)-4-methoxyphenylacetamide]

Emax [1]: 112%
IC50 [2]: 7.94 nM
SMILES: CCN1CCC(N(Cc2ccc(C)cc2)C(=O)Cc2ccc(Cl)cc2)CC1 [Example 47AKU-12, 2-(4-Chlorophenyl)-N-(4-methylbenzyl)-N-(1-ethylpiperidin-4-yl)acetamide]

Emax [1]: 110%
IC50 [2]: 0.251 nM
SMILES: CCOc1ccc(CC(=O)N(Cc2ccc(C)cc2)C2CCN(C)CC2)cc1 [Example 58AKU-4, 2-(4-Ethoxyphenyl)-N-(4-methylbenzyl)-N-(1-methylpiperidin-4-yl)acetamide]

Emax [1]: 95%
IC50 [2]: 1 nM
SMILES: CCOc1ccc(CC(=O)N(CCc2ccc(F)cc2)C2CCN(C)CC2)cc1 [Example 63ELH20, 2-(4-ethoxyphenyl)-N-[2-(4-fluorophenyl)ethyl]-N-(1-methylpiperidin-4-yl)acetamide]

Emax [1]: 120%
IC50 [2]: 7.94 nM
SMILES: Cc1ccc(CN(C(=O)Cc2ccc(Cl)cc2)C2CCN(C(C)C)CC2)cc1 [Example 47AKU-7, 2-(4-Chlorophenyl)-N-(4-methylbenzyl)-N-(1-isopropylpiperidin-4-yl)-acetamide]

Emax [1]: 129%
IC50 [2]: 15.8 nM
SMILES: COc1ccc(CC(=O)N(Cc2ccc(F)cc2)C2CCN(C)CC2)cc1 [Example 50ELH8, 2-(4-Methoxyphenyl)-N-(4-fluorobenzyl)-N-(1-methylpiperidin-4-yl)acetamide]
